Measurements published in patent US8633200B2, “Inhibitors of human immunodeficiency virus replication” (priority 2010, dated 2014).
Structures can show the parent of a compound that is named as a salt.

system: recombinant NL-Rluc virus (NL4-3 with Renilla Luciferase gene) in MT-2 cells; experiment: Inhibition of HIV replication (NL-Rluc luciferase reporter virus, MT-2 cells); assay type: cell-based, human immunodeficiency virus (HIV); details: NL43, 120 h, read-out: Activity

Cc1nc2cc(-c3ccccc3)nn2c(-c2cccc3cnccc23)c1C(OC(C)(C)C)C(=O)O (centres unmarked) [Example 73] and Cc1nc2cc(-c3ccccc3)nn2c(-c2cccc3[nH]ccc23)c1C(OC(C)(C)C)C(=O)O (centres unmarked) [Example 72] cannot be ordered by EC50: greater than 1 µM for the first, greater than 1 µM for the second.

CCC(C)c1ccc(-c2c(C(OC(C)(C)C)C(=O)O)c(C)nc3cc(-c4ccccc4)nn23)cc1 (centres unmarked) [Example 49] and Cc1nc2cc(-c3ccccc3)nn2c(-c2cccc(Cl)c2)c1C(OC(C)(C)C)C(=O)O (centres unmarked) [Example 16] cannot be ordered by EC50: greater than 1 µM for the first, greater than 1 µM for the second.

Cc1nc2cc(-c3ccnc(F)c3)nn2c(-c2cc(F)c3c(c2C)CCCO3)c1C(OC(C)(C)C)C(=O)O (centres unmarked) [Example 109, 2-tert-Butoxy-2-(7-(8-fluoro-5-methylchroman-6-yl)-2-(2-fluoropyridin-4-yl)-5-methylpyrazolo[1,5-a]pyrimidin-6-yl)acetic acid, TFA salt] and CCc1ccc(-c2cc3nc(C)c(C(OC(C)(C)C)C(=O)O)c(-c4cc(F)c5c(c4C)CCCO5)n3n2)cc1 (centres unmarked) [Example 100, 2-tert-Butoxy-2-(2-(4-ethylphenyl)-7-(8-fluoro-5-methylchroman-6-yl)-5-methylpyrazolo[1,5-a]pyrimidin-6-yl)acetic acid, TFA salt] fall in the same range of EC50: 0.1 to 1 µM for the first, 0.1 to 1 µM for the second.

First: Cc1nc2cc(-c3ccc(Oc4ccccc4)cc3)nn2c(-c2ccc3c(c2)CCCO3)c1C(OC(C)(C)C)C(=O)O (centres unmarked) [Example 112, 2-tert-Butoxy-2-(7-(chroman-6-yl)-5-methyl-2-(4-phenoxyphenyl)pyrazolo[1,5-a]pyrimidin-6-yl)acetic acid, TFA salt]
Second: Cc1nc2cc(-c3ccccc3)nn2c(-c2ccc(Oc3ccccc3)cc2)c1C(OC(C)(C)C)C(=O)O (centres unmarked) [Example 24]
The EC50 of the first is lower: 0.1 to 1 µM for the first, greater than 1 µM for the second.

Cc1nc2cc(-c3cccc(-c4cnn(-c5ccccc5)c4C)c3)nn2c(-c2cc(F)c3c(c2C)CCCO3)c1[C@H](OC(C)(C)C)C(=O)O [Example 174, (2S)-2-(tert-Butoxy)-2-(7-(8-fluoro-5-methylchroman-6-yl)-5-methyl-2-(3-(5-methyl-1-phenyl-1H-pyrazol-4-yl)phenyl)pyrazolo[1,5-a]pyrimidin-6-yl)acetic acid] and Cc1nc2cc(-c3ccc4c(c3)CCCC4)nn2c(-c2cc(F)c3c(c2C)CCCO3)c1[C@H](OC(C)(C)C)C(=O)O [Example 150, (2S)-2-(tert-Butoxy)-2-(7-(8-fluoro-5-methylchroman-6-yl)-5-methyl-2-(5,6,7,8-tetrahydronaphthalen-2-yl)pyrazolo[1,5-a]pyrimidin-6-yl)acetic acid] cannot be ordered by EC50: less than 0.1 µM for the first, less than 0.1 µM for the second.

First: Cc1nc2cc(-c3ccccc3)nn2c(-c2ccc3c(ccn3C)c2)c1C(OC(C)(C)C)C(=O)O (centres unmarked) [Example 36]
Second: Cc1nc2cc(-c3ccccc3)nn2c(-c2ccc3cc[nH]c3c2)c1C(OC(C)(C)C)C(=O)O (centres unmarked) [Example 51]
The EC50 of the first is lower: 0.1 to 1 µM for the first, greater than 1 µM for the second.

Cc1nc2c(-c3ccccc3)cnn2c(-c2ccc3c(c2)CCCO3)c1C(OC(C)(C)C)C(=O)O (centres unmarked) [Example 45, 2-tert-Butoxy-2-(7-(chroman-6-yl)-5-methyl-3-phenylpyrazolo[1,5-a]pyrimidin-6-yl)acetic acid, TFA salt] and Cc1cccc(-c2cc3nc(C)c(C(OC(C)(C)C)C(=O)O)c(-c4ccc5c(c4)CCCO5)n3n2)c1 (centres unmarked) [Example 114, 2-tert-Butoxy-2-(7-(chroman-6-yl)-5-methyl-2-m-tolylpyrazolo[1,5-a]pyrimidin-6-yl)acetic acid, TFA salt] fall in the same range of EC50: 0.1 to 1 µM for the first, 0.1 to 1 µM for the second.

Compared with Cc1nc2cc(-c3ccc4c(c3)CCCO4)nn2c(-c2ccc3c(c2)CCCO3)c1C(OC(C)(C)C)C(=O)O (centres unmarked) [Example 113, 2-tert-Butoxy-2-(2,7-di(chroman-6-yl)-5-methylpyrazolo[1,5-a]pyrimidin-6-yl)acetic acid, TFA salt], Cc1nc2cc(-c3ccccc3)nn2c(-c2ccc3cn[nH]c3c2)c1C(OC(C)(C)C)C(=O)O (centres unmarked) [Example 76] is higher in EC50: 0.1 to 1 µM for the first, greater than 1 µM for the second.

Compound COc1ccccc1-c1c(C(OC(C)(C)C)C(=O)O)c(C)nc2cc(-c3ccccc3)nn12 (centres unmarked) [Example 9] has an EC50 greater than 1 µM.

same assay, conditions: NL43, 120 h, read-out: EC50 μM

Going from Cc1nc2cc(-c3ccnc(F)c3)nn2c(-c2cc(F)c3c(c2C)CCCO3)c1C(OC(C)(C)C)C(=O)O (centres unmarked) [Example 109, 2-tert-Butoxy-2-(7-(8-fluoro-5-methylchroman-6-yl)-2-(2-fluoropyridin-4-yl)-5-methylpyrazolo[1,5-a]pyrimidin-6-yl)acetic acid, TFA salt] to Cc1nc2cc(-c3ccc4c(c3)CCCO4)nn2c(-c2ccc3c(c2)CCCO3)c1C(OC(C)(C)C)C(=O)O (centres unmarked) [Example 113, 2-tert-Butoxy-2-(2,7-di(chroman-6-yl)-5-methylpyrazolo[1,5-a]pyrimidin-6-yl)acetic acid, TFA salt], the EC50 falls from 0.27 µM to 0.11 µM (2.5-fold). The second is the more potent here.

Cc1nc2c(-c3ccccc3)cnn2c(-c2ccc3c(c2)CCCO3)c1C(OC(C)(C)C)C(=O)O (centres unmarked) [Example 45, 2-tert-Butoxy-2-(7-(chroman-6-yl)-5-methyl-3-phenylpyrazolo[1,5-a]pyrimidin-6-yl)acetic acid, TFA salt] gave an EC50 of 0.24 µM.
